# Reference: patent publication US20260042745A1, “PYRROLIDINE-2-CARBOXAMIDE DERIVATIVES AS PROSTAGLANDIN E2 RECEPTOR 4 (EP4) AGONISTS FOR THE TREATMENT OF GASTROINTESTINAL AND PULMONARY DISEASES” (NXERA PHARMA UK LIMITED, priority 2022, published 2026)
# Columns and labels:
# human EP4 = target: T1, human EP4 (Homo sapiens, UniProt P35408); experiment: cAMP Gs functional assay (HTRF cAMP dynamic-2) in EP4-transfected HEK293 cells; assay type: cell-based; conditions: HEK293 cells transfected with EP4 BacMam virus; for EC50: 30 min at 37° C., HTRF cAMP, read-out: cAMP human EP4 pEC50 (converted); for cAMP human EP4 Emax: positive control PGE2
# T1 construct: expressed in transfected cells; host or cells: HEK293 cells transduced with EP4 BacMam baculovirus
# T1 sequence (P35408 whole entry): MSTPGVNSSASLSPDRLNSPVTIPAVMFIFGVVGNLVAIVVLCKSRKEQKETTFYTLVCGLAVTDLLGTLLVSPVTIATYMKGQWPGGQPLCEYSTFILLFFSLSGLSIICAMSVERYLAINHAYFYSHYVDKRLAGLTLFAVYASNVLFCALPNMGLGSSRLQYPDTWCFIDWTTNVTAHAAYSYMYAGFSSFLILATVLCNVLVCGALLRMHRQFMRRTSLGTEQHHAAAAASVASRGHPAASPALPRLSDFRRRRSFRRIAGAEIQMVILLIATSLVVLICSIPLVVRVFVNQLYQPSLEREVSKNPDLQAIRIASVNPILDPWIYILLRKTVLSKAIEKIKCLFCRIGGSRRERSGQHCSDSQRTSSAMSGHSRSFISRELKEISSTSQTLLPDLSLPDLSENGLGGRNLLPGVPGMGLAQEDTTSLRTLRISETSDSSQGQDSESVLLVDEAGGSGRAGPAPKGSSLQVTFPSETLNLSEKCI
# Protocol: Cloning, Baculovirus generation, large scale infection of HEK293 cells and membrane preparation: Human prostaglandin E2 receptor 4 (EP4) was cloned into pBacMam expression vector (GeneScript, UK). Transposition of EP4 DNA was performed using Invitrogen's Bac-to-Bac Baculovirus Expression Systems. P0 baculovirus was generated by transfecting SF9 Cells with bacmid DNA using Cellfectin II transfection reagent (ThermoFisher Scientific, UK). Following P0 generation P1 virus was then generated ready for large scale infection and membrane preparation. HEK293 cells were grown in DMEM (ThermoFisher Scientific, UK), supplemented with 10% heat inactivated fetal bovine serum (FBS). Cells were infected at a seeding density of 3.5 million cells/mL in 500 cm^3 flasks at 5% v/v EP4 Bacman. Expression was carried out over a 36 hour period at 37° C. with 5% CO2. The cells were removed using PBS and a cell scrapper. The cell culture was centrifuged at 2500 RPM for 10 mins at 4° C. The supernatant was then poured off and the pellet stored at −80° C. The pellet was defrosted and re-suspended in 15 mL of homogenising buffer (20 mM HEPES, 10 mM EDTA, pH 7.4). Then homogenised in mechanical homogeniser (VMR) for 10 seconds. The membrane was centrifuged in centrifuge tubes at 40,000 g for 15 mins at 4° C. The supernatant was poured away and re-suspended in 15 mL of homogenising buffer and homogenised for 20 seconds. The membrane was then centrifuged at 40,000 g for 45 mins at 4° C. The membrane was then re-suspended in 3 mL of storage buffer (20 mM HEPES, 0.1 mM EDTA, pH 7.4) mixing well. The resulting membranes were then stored at −80° C.
# cAMP Gs Functional Assay: cAMP production following EP4 receptor activation was determined using the Homogeneous Time-Resolved Fluorescence (HTRF) cAMP dynamic-2 assay (Cisbio, France). HEK293 cells were transfected using a 0.5% EP4 Bacman virus for 36 hours, before dissociating the cells, and freezing at −150° C.
# On the day of testing, increasing concentration of test compounds, alongside positive controls ([…] PGE2 (Tocris, Abingdon, UK)) and negative control (DMSO (Sigma-Aldrich, UK) were added to a ProxiPlate-384 Plus, White 384-shallow well Mircoplate, (PerkinElmer, USA) using the ECHO dispense.
# Cells were defrosted in a water bath and resuspended in DMEM supplemented with 10% FBS before centrifuging at 1200 RPM for 5 mins to form a pellet. The pellet was resuspended in assay buffer (DMEM+0.5 mM IBMX (Tocris, Abingdon, UK)) to 0.5×10^6 cells/mL. Cell suspension, for a final assay concentration of 5000 cell/well was added using the multidrop to the pre-dispensed assay plate. The plate was then incubated at 37° C. for 30 mins, with 5% CO2. The cAMP production was determined as manufacturer's instructions, before plates were read on a PheraStar fluorescence plate reader (BMG LabTech, Germany).
# [1] = Unidirectional Caco-2 cell permeability assay; assay type: in vitro ADME; conditions: human, apical pH 6.5, basolateral pH 7.4, 1 hour, 37° C., n=2
# Protocol: Caco-2 cells (ECACC) were seeded onto 24-well Transwell plates at 2×10^5 cells per well and used in confluent monolayers after a 21 day culture at 37° C. under 500 CO2. Test compounds were incubated at 10 μM, 0.2% DMSO final, n=2 in assay buffer (Hanks balanced salt solution supplemented with 25 mM HEPES, adjusted to pH 6.5). Hanks balanced salt solution supplemented with 25 mM HEPES, adjusted to pH 7.4 (0.2% DMSO final) was used for the basolateral chamber (as receiver).
# Incubations were performed at 37° C., with samples removed from both donor and acceptor chambers at T=0 and 1 hour and compound analysed by mass spectrometry (LC-MS/MS) including an analytical internal standard ([…] carbamazepine).
# Apparent permeability (Papp) values are shown in Table 3 and were determined from the relationship:
# Where V is the volume of each Transwell compartment (apical 125 μL, basolateral 600 μL), and concentrations are the relative MS responses for compound (normalized to internal standard) in the donor chamber before incubation and acceptor chamber at the end of the incubation Area=area of cells exposed for drug transfer (0.33 cm^2).
# Lucifer Yellow (LY) was added to the apical buffer in all wells to assess viability of the cell layer. As LY cannot freely permeate lipophilic barriers, a high degree of LY transport indicates poor integrity of the cell layer and wells with a LY Papp>10×10^−6 cm/s were rejected.
# Compound recovery from the wells was determined from MS responses (normalized to internal standard) in donor and acceptor chambers at the end of incubation compared to response in the donor chamber pre-incubation.
SMILES,EC50 (human EP4) [nM],cAMP human EP4 Emax (human EP4) [%],"Papp A→B at 1 h, 10 μM [1] [×10⁻⁶ cm/s]"
"Cc1cc(S(N)(=O)=O)ccc1-c1cccc(CN2CCC[C@@H]2C(=O)NC2(c3ccc(C(=O)O)cc3)CC2)c1 [Example 30, (R)-4-(1-(1-((2′-methyl-4′-sulfamoyl-[1,1′-biphenyl]-3-yl)methyl)pyrrolidine-2-carboxamido)cyclopropyl)benzoic acid]",0.501,99,0.29
"Cc1cc(S(N)(=O)=O)ccc1-c1cccc(CN2CCC[C@@H]2C(=O)N[C@@H](C)c2ccc(C(=O)O)c(O)c2)c1 [Example 18, 2-hydroxy-4-((S)-1-((R)-1-((2′-methyl-4′-sulfamoyl-[1,1′-biphenyl]-3-yl)methyl)pyrrolidine-2-carboxamido)ethyl)benzoic acid]",3.16,95,0.11
"Cc1cc(S(N)(=O)=O)ccc1-c1cccc(CN2CC3CC2(C(=O)NC2(c4ccc(C(=O)O)cc4)CC2)C3)c1 [Example 27, 4-(1-(2-((2′-methyl-4′-sulfamoyl-[1,1′-biphenyl]-3-yl)methyl)-2-azabicyclo[2.1.1]hexane-1-carboxamido)cyclopropyl)benzoic acid]",6.31,85,< 0.28
"Cc1cc(S(N)(=O)=O)ccc1-c1cccc(CN2CCC[C@@H]2C(=O)NCc2ccc(C(=O)O)c(O)c2)c1 [Example 16, (R)-2-hydroxy-4-((1-((2′-methyl-4′-sulfamoyl-[1,1′-biphenyl]-3-yl)methyl)pyrrolidine-2-carboxamido)methyl)benzoic acid]",20,98,0.17
"Cc1cc(C(N)=O)ccc1-c1cccc(CN2CC3CC2(C(=O)NC2(c4ccc(C(=O)O)cc4)CC2)C3)c1 [Example 29, 4-(1-(2-((4′-carbamoyl-2′-methyl-[1,1′-biphenyl]-3-yl)methyl)-2-azabicyclo[2.1.1]hexane-1-carboxamido)cyclopropyl)benzoic acid]",6.31,91,< 0.11

# Results, then the molecule that gave them:
EC50 (human EP4) [nM],cAMP human EP4 Emax (human EP4) [%],"Papp A→B at 1 h, 10 μM [1] [×10⁻⁶ cm/s]",SMILES
20,92,0.18,"C[C@H](NC(=O)[C@H]1CCCN1Cc1cccc(-c2ccc(C(N)=O)cc2O)c1)c1ccc(C(=O)O)cc1 [Example 11, 4-((S)-1-((R)-1-((4′-carbamoyl-2′-hydroxy-[1,1′-biphenyl]-3-yl)methyl)pyrrolidine-2-carboxamido)ethyl)benzoic acid]"
0.631,98,< 0.1,"Cc1cc(S(N)(=O)=O)ccc1-c1cc(O)cc(CN2CCC[C@@H]2C(=O)N[C@@H](C)c2ccc(C(=O)O)cc2)c1 [Example 20, 4-((S)-1-((R)-1-((5-hydroxy-2′-methyl-4′-sulfamoyl-[1,1′-biphenyl]-3-yl)methyl)pyrrolidine-2-carboxamido)ethyl)benzoic acid]"
7.94,89,0.26,"C[C@H](NC(=O)[C@H]1CCCN1Cc1ccc(O)c(-c2ccc(C(N)=O)cc2)c1)c1ccc(C(=O)O)cc1 [Example 12, 4-((S)-1-((R)-1-((4′-carbamoyl-6-hydroxy-[1,1′-biphenyl]-3-yl)methyl)pyrrolidine-2-carboxamido)ethyl)benzoic acid]"
25.1,76,< 0.12,"Cc1cc(C(N)=O)ccc1-c1cccc(CN2CC3CC2(C(=O)N[C@@H](C)c2ccc(C(=O)O)cc2)C3)c1 [Example 28, (S)-4-(1-(2-((4′-carbamoyl-2′-methyl-[1,1′-biphenyl]-3-yl)methyl)-2-azabicyclo[2.1.1]hexane-1-carboxamido)ethyl)benzoic acid]"
126,85,< 0.1,C[C@H](NC(=O)[C@H]1CCCN1Cc1cccc(-c2ccc(S(N)(=O)=O)cc2O)c1)c1ccc(C(=O)O)cc1 [Example 22]
